# Measured values taken from PubChem BioAssay (NCI).
#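 Tested at 5 concentrations; 48 h exposure; 96-well plates; endpoints linearly interpolated, else capped at highest concentration. GI50 = concentration required for 50% inhibition of growth. Definition used: TGI = concentration required for complete inhibition of growth.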
# Tests used:
# Assay in all cases: DTP human tumour cell line panel, 48 h
# 786-0 renal = tested on: 786-0 renal
# A498 renal = tested on: A498 renal
# A549 NSCLC = tested on: A549 NSCLC
# ACHN renal = tested on: ACHN renal
# BT-549 breast = tested on: BT-549 breast
# CAKI-1 renal = tested on: CAKI-1 renal
# CCRF-CEM leukemia = tested on: CCRF-CEM leukemia
# COLO 205 colon = tested on: COLO 205 colon
# DU-145 prostate = tested on: DU-145 prostate
# EKVX NSCLC = tested on: EKVX NSCLC
# HCC-2998 colon = tested on: HCC-2998 colon
# HCT-116 colon = tested on: HCT-116 colon
# HCT-15 colon = tested on: HCT-15 colon
# HL-60(TB) leukemia = tested on: HL-60(TB) leukemia
# HOP-62 NSCLC = tested on: HOP-62 NSCLC
# HOP-92 NSCLC = tested on: HOP-92 NSCLC
# HS 578T breast = tested on: HS 578T breast
# HT29 colon = tested on: HT29 colon
# IGROV1 ovarian = tested on: IGROV1 ovarian
# K-562 leukemia = tested on: K-562 leukemia
# KM12 colon = tested on: KM12 colon
# LOX IMVI melanoma = tested on: LOX IMVI melanoma
# M14 melanoma = tested on: M14 melanoma
# MALME-3M melanoma = tested on: MALME-3M melanoma
# MCF7 breast = tested on: MCF7 breast
# MDA-MB-231 breast = tested on: MDA-MB-231 breast
# MDA-MB-435 = tested on: MDA-MB-435
# MDA-MB-468 breast = tested on: MDA-MB-468 breast
# MOLT-4 leukemia = tested on: MOLT-4 leukemia
# NCI-H226 lung = tested on: NCI-H226 lung
# NCI-H23 lung = tested on: NCI-H23 lung
# NCI-H460 lung = tested on: NCI-H460 lung
# NCI-H522 lung = tested on: NCI-H522 lung
# NCI/ADR-RES ovarian = tested on: NCI/ADR-RES ovarian
# OVCAR-3 ovarian = tested on: OVCAR-3 ovarian
# OVCAR-4 ovarian = tested on: OVCAR-4 ovarian
# OVCAR-5 ovarian = tested on: OVCAR-5 ovarian
# OVCAR-8 ovarian = tested on: OVCAR-8 ovarian
# PC-3 prostate = tested on: PC-3 prostate
# RPMI-8226 leukemia = tested on: RPMI-8226 leukemia
# RXF 393 renal = tested on: RXF 393 renal
# SF-268 CNS = tested on: SF-268 CNS
# SF-295 CNS = tested on: SF-295 CNS
# SF-539 CNS = tested on: SF-539 CNS
# SK-MEL-2 melanoma = tested on: SK-MEL-2 melanoma
# SK-MEL-28 melanoma = tested on: SK-MEL-28 melanoma
# SK-MEL-5 melanoma = tested on: SK-MEL-5 melanoma
# SK-OV-3 ovarian = tested on: SK-OV-3 ovarian
# SN12C renal = tested on: SN12C renal
# SNB-19 CNS = tested on: SNB-19 CNS
# SNB-75 CNS = tested on: SNB-75 CNS
# SR leukemia = tested on: SR leukemia
# SW-620 colon = tested on: SW-620 colon
# T-47D breast = tested on: T-47D breast
# TK-10 renal = tested on: TK-10 renal
# U251 CNS = tested on: U251 CNS
# UACC-257 melanoma = tested on: UACC-257 melanoma
# UACC-62 melanoma = tested on: UACC-62 melanoma
# UO-31 renal = tested on: UO-31 renal
smiles,measurement,setting,value
O=C(Cn1c(-c2ccccc2)nc2ccccc21)N=Nc1c(O)[nH]c2ccc(Cl)cc12,GI50,786-0 renal,17.9 µM
same,TGI,786-0 renal,39 µM
same,GI50,A498 renal,13.6 µM
same,TGI,A498 renal,27.3 µM
same,GI50,A549 NSCLC,13.6 µM
same,TGI,A549 NSCLC,30.8 µM
same,GI50,ACHN renal,16 µM
same,TGI,ACHN renal,34 µM
same,GI50,BT-549 breast,16.7 µM
same,TGI,BT-549 breast,35.7 µM
same,GI50,CAKI-1 renal,13.5 µM
same,TGI,CAKI-1 renal,27 µM
same,GI50,CCRF-CEM leukemia,20 µM
same,TGI,CCRF-CEM leukemia,> 100 µM
same,GI50,COLO 205 colon,21 µM
same,TGI,COLO 205 colon,47.9 µM
same,GI50,DU-145 prostate,18.4 µM
same,TGI,DU-145 prostate,40.2 µM
same,GI50,EKVX NSCLC,11 µM
same,TGI,EKVX NSCLC,25.6 µM
same,GI50,HCC-2998 colon,13.4 µM
same,TGI,HCC-2998 colon,27.5 µM
same,GI50,HCT-116 colon,10 µM
same,TGI,HCT-116 colon,29.3 µM
same,GI50,HCT-15 colon,9.6 µM
same,TGI,HCT-15 colon,24 µM
same,GI50,HL-60(TB) leukemia,24 µM
same,TGI,HL-60(TB) leukemia,> 100 µM
same,GI50,HOP-62 NSCLC,17.2 µM
same,TGI,HOP-62 NSCLC,37.7 µM
same,GI50,HOP-92 NSCLC,13.6 µM
same,TGI,HOP-92 NSCLC,31.4 µM
same,GI50,HS 578T breast,16.5 µM
same,TGI,HS 578T breast,49.6 µM
same,GI50,HT29 colon,14.7 µM
same,TGI,HT29 colon,30.7 µM
same,GI50,IGROV1 ovarian,14.4 µM
same,TGI,IGROV1 ovarian,29.9 µM
same,GI50,K-562 leukemia,6.91 µM
same,TGI,K-562 leukemia,> 100 µM
same,GI50,KM12 colon,19.2 µM
same,TGI,KM12 colon,62.2 µM
same,GI50,LOX IMVI melanoma,14.5 µM
same,TGI,LOX IMVI melanoma,28.6 µM
same,GI50,M14 melanoma,17.7 µM
same,TGI,M14 melanoma,40.4 µM
same,GI50,MALME-3M melanoma,12.2 µM
same,TGI,MALME-3M melanoma,25.5 µM
same,GI50,MCF7 breast,10.9 µM
same,TGI,MCF7 breast,25.2 µM
same,GI50,MDA-MB-231 breast,11.9 µM
same,TGI,MDA-MB-231 breast,24.9 µM
same,GI50,MDA-MB-435,9.18 µM
same,TGI,MDA-MB-435,26 µM
same,GI50,MDA-MB-468 breast,5.77 µM
same,TGI,MDA-MB-468 breast,18.9 µM
same,GI50,MOLT-4 leukemia,6.41 µM
same,TGI,MOLT-4 leukemia,> 100 µM
same,GI50,NCI-H226 lung,12.1 µM
same,TGI,NCI-H226 lung,30.2 µM
same,GI50,NCI-H23 lung,13.7 µM
same,TGI,NCI-H23 lung,28.2 µM
same,GI50,NCI-H460 lung,15.4 µM
same,TGI,NCI-H460 lung,33 µM
same,GI50,NCI-H522 lung,10.3 µM
same,TGI,NCI-H522 lung,25.1 µM
same,GI50,NCI/ADR-RES ovarian,12.8 µM
same,TGI,NCI/ADR-RES ovarian,29.7 µM
same,GI50,OVCAR-3 ovarian,16.1 µM
same,TGI,OVCAR-3 ovarian,37.2 µM
same,GI50,OVCAR-4 ovarian,15.3 µM
same,TGI,OVCAR-4 ovarian,34.2 µM
same,GI50,OVCAR-5 ovarian,18.8 µM
same,TGI,OVCAR-5 ovarian,48 µM
same,GI50,OVCAR-8 ovarian,16.1 µM
same,TGI,OVCAR-8 ovarian,34.5 µM
same,GI50,PC-3 prostate,12.7 µM
same,TGI,PC-3 prostate,33.8 µM
same,GI50,RPMI-8226 leukemia,20.5 µM
same,TGI,RPMI-8226 leukemia,> 100 µM
same,GI50,RXF 393 renal,4.99 µM
same,TGI,RXF 393 renal,18.6 µM
same,GI50,SF-268 CNS,16.1 µM
same,TGI,SF-268 CNS,47.9 µM
same,GI50,SF-295 CNS,12.3 µM
same,TGI,SF-295 CNS,26.1 µM
same,GI50,SF-539 CNS,14.7 µM
same,TGI,SF-539 CNS,30.5 µM
same,GI50,SK-MEL-2 melanoma,17.4 µM
same,TGI,SK-MEL-2 melanoma,36.5 µM
same,GI50,SK-MEL-28 melanoma,14.4 µM
same,TGI,SK-MEL-28 melanoma,30.2 µM
same,GI50,SK-MEL-5 melanoma,14.6 µM
same,TGI,SK-MEL-5 melanoma,31.3 µM
same,GI50,SK-OV-3 ovarian,19.3 µM
same,TGI,SK-OV-3 ovarian,38.2 µM
same,GI50,SN12C renal,15.5 µM
same,TGI,SN12C renal,31.1 µM
same,GI50,SNB-19 CNS,16.7 µM
same,TGI,SNB-19 CNS,33.7 µM
same,GI50,SNB-75 CNS,10.3 µM
same,TGI,SNB-75 CNS,23.6 µM
same,GI50,SR leukemia,8.56 µM
same,TGI,SR leukemia,> 100 µM
same,GI50,SW-620 colon,15.5 µM
same,TGI,SW-620 colon,37.7 µM
same,GI50,T-47D breast,11.6 µM
same,TGI,T-47D breast,30 µM
same,GI50,TK-10 renal,17.5 µM
same,TGI,TK-10 renal,35.6 µM
same,GI50,U251 CNS,16.9 µM
same,TGI,U251 CNS,33.4 µM
same,GI50,UACC-257 melanoma,14.1 µM
same,TGI,UACC-257 melanoma,28.6 µM
same,GI50,UACC-62 melanoma,12.4 µM
same,TGI,UACC-62 melanoma,25.5 µM
same,GI50,UO-31 renal,11.4 µM
same,TGI,UO-31 renal,24.1 µM
